Data from US20140357512A1, “HISTONE DEACETYLASE (HDAC) BIOMARKERS IN MULTIPLE MYELOMA” (priority 2013, published 2014).

Tested on: human myeloma cell line MM.1S
Experiment: SILAC acetylated-lysine peptide profiling, HDAC inhibitor vs DMSO (light/heavy ratio)
Format: cell-based
Text: An embodiment of the invention comprises utilizing the SILAC method in order to quantitate changes in protein expression between two or more populations of cells. The SILAC method is a technique based on mass spectrometry that detects differences in protein abundance among samples using non-radioactive isotopic labeling. The SILAC method is known in the art, and described in detail in Ong et al., “Stable Isotope Labeling by Amino Acids in Cell Culture, SILAC, as a Simple and Accurate Approach to Expression Proteomics”, Molecular & Cellular Proteomics, vol. 1, pp. 376-386 (2002), which is incorporated herein by reference in its entirety.
Briefly, the SILAC method involves growing two populations of cells in cell culture. The first population of cells is grown in growth media containing normal amino acids (“normal media”). The second population of cells is grown in media lacking a standard essential amino acid (such as lysine), but is then supplemented with a non-radioactive, isotopically labeled form of that essential amino acid (such as lysine labeled with ^13C atoms, rather than normal ^12C atoms), which is called “heavy media”. When the two populations of cells are each growing in the medium, they incorporate the amino acids into all of their proteins. The growth of cells maintained in the heavy media is no different from that in normal media. All peptides containing the heavy amino acids are heavier than their normal counterparts. The cells from each of the two populations of cells are lysed. The lysates from each of the two cell populations are then combined. The combined cell lysates are then analyzed by mass spectrometry. Pairs of chemically identical peptides of different stable isotope composition can be differentiated in a mass spectrometer due to their difference in mass. The ratio of peak intensities in the mass spectrum for such peptide pairs reflects the abundance ratio for the two proteins.
This example describes SILAC studies that were performed to compare the effects of three different HDAC inhibitors (Compound A, Compound B, and tubastatin A) to a control on a human multiple myeloma cell line. The HDAC inhibitors were also compared amongst themselves to determine differences in their effects.
A human myeloma cell line MM.1S was grown using either ^12C (light) or ^13C (heavy) lysine containing culture medium. The “heavy” cells were treated with DMSO as the control, and the “light” cells were treated with a single HDAC inhibitor at 37° C. for 6 hours. The heavy and light cells were lysed, and the lysates were mixed in 1:1 ratio and digested with the protease trypsin. The acetylated lysine containing peptides (due to the action of the HDAC inhibitor) in the digested peptide pool were captured by a non-specific anti-acetylated lysine antibody cocktail (the antibodies identify both light and heavy acetylated peptides), and subjected to mass spectrometry analysis in order to identify thousands of individual peptides.
Thousands of peptides were identified in pairs (^12C and ^13C) due to their known mass differences. The amino acid sequence and quantitative ratio (Light/Heavy) of a given peptide in two differentially treated cell lysates were then determined and annotated with their possible protein (gene) sources.
As stated above, three HDAC inhibitors (Compound A, Compound B, and Tubastatin A) were used. Thus, the SILAC method was performed three times, with a different HDAC inhibitor compared to a control each time. Accordingly, there are three pairs of quantitative data in the table below, i.e., Compound A:DMSO, Compound B:DMSO, and Tubastatin A:DMSO. A cut-off of 1.30 fold of change (increase or decrease) was then used to determine “changed” or “+” in the table, and any peptides with a fold of change less than 1.3 fold were determined to be “unchanged” or “0” in the table. Those peptides that were not identified were marked as “NA” in the table. […]

In the case of `O=C(CCCCCCNC(=O)c1cnc(N(c2ccccc2)c2ccccc2)nc1)NO` [Compound A, 2-(diphenylamino)-N-(7-(hydroxyamino)-7-oxoheptyl)pyrimidine-5-carboxamide], the “light to heavy ratio (L/H ratio) of acetylated peptide AIFAGYK(ac)R (SEQ ID NO: 300)” value (60S ribosomal protein L35a [15], RPL35A, drug:DMSO) is reported as 0.86 log 2, the “light to heavy ratio (L/H ratio) of acetylated peptide KIEISQHAK(ac)YTCSFCGK (SEQ ID NO: 351)” value (60S ribosomal protein L37a [36], RPL37A, drug:DMSO) is reported as 0.00 log 2 and the “light to heavy ratio (L/H ratio) of acetylated peptide SIDLK(ac)DK (SEQ ID NO: 572)” value (60 kDa heat shock protein mitochondrial [87], gene HSPD1, inhibitor:DMSO) is reported as 0.42 log 2. The “light to heavy ratio (L/H ratio) of acetylated peptide VMEHFIK(ac)LYK (SEQ ID NO: 276)” value (78 kDa glucose-regulated protein [268], HSPA5, drug:DMSO) was 0.54 log 2, the “light to heavy ratio (L/H ratio) of acetylated peptide AK(ac)[…] (SEQ ID NO: 266)” value (78 kDa glucose-regulated protein [326], HSPA5, drug:DMSO) was 0.44 log 2 and the “light to heavy ratio (L/H ratio) of acetylated peptide FK(ac)[…] (SEQ ID NO: 333)” value (116 kDa U5 small nuclear ribonucleoprotein component [790], EFTUD2, drug:DMSO) was 0.00 log 2. For the same molecule, the “L/H ratio of acetylated peptide […](ac)LAR (SEQ ID NO: 19)” value (ACADVL [428], log 2 scale, drug vs DMSO) was 0.00, the “L/H ratio of acetylated peptide LDHLAEK(ac)FR (SEQ ID NO: 20)” value (ACTN1 [398], log 2 scale, drug vs DMSO) was 0.00 and the “light to heavy ratio (L/H ratio) of acetylated peptide IFGSNK(ac)WTTEQQQR (SEQ ID NO: 306)” value (ADP-ribosylation factor-like protein 6-interacting protein 1 [96], ARL6IP1, drug:DMSO) was 1.00 log 2. The “light to heavy ratio (L/H ratio) of acetylated peptide TTLLYK(ac)LK (SEQ ID NO: 624)” value (ADP-ribosylation factor-like protein 11 [31], gene ARL11, inhibitor:DMSO) was 0.49 log 2, the “light to heavy ratio (L/H ratio) of acetylated peptide IFK(ac)SDGLR (SEQ ID NO: 280)” value (ADP/ATP translocase 1 [166], SLC25A4, drug:DMSO) was 0.56 log 2 and the “light to heavy ratio (L/H ratio) of acetylated peptide ITK(ac)SDGIR (SEQ ID NO: 587)” value (ADP/ATP translocase 3 [166], gene SLC25A6, inhibitor:DMSO) was 0.44 log 2. The “L/H ratio of acetylated peptide” value (AK(ac)HDELTYF (SEQ ID NO: 497), Cystatin-B [91], CSTB) was −0.88 log 2, the “light to heavy ratio (L/H ratio) of acetylated peptide, log 2 scale” value (ALDLNLK(ac)HQILPK (SEQ ID NO: 248), Cytochrome b-c1 complex subunit 7 [72], UQCRB) was −0.50 and the “L/H ratio of acetylated peptide LK(ac)[…] (SEQ ID NO: 21)” value (ANP32B [101], log 2 scale, drug vs DMSO) was 0.00. For the same molecule, the “L/H ratio of acetylated peptide […](ac)SLYGK (SEQ ID NO: 22)” value (ANXA6 [63], log 2 scale, drug vs DMSO) was 0.00, the “L/H ratio of acetylated peptide MYFDK(ac)[…] (SEQ ID NO: 23)” value (ATAD3A [491], log 2 scale, drug vs DMSO) was 0.00 and the “L/H ratio of acetylated peptide IVEYEK(ac)EMEK (SEQ ID NO: 24)” value (ATP5H [117], log 2 scale, drug vs DMSO) was 0.00. The “L/H ratio of acetylated peptide YYNK(ac)YINVK (SEQ ID NO: 12)” value (ATP5J2 [54], log 2 scale, drug vs DMSO) was 0.54, the “light to heavy ratio (L/H ratio) of acetylated peptide QNK(ac)LEQVEK (SEQ ID NO: 271)” value (ATP synthase subunit O mitochondrial [54], ATP50, drug:DMSO) was 0.46 log 2 and the “light to heavy ratio (L/H ratio) of acetylated peptide STVAQLVK(ac)R (SEQ ID NO: 552)” value (ATP synthase subunit alpha mitochondrial [261], gene ATP5A1, inhibitor:DMSO) was 0.39 log 2. For the same molecule, the “light to heavy ratio (L/H ratio) of acetylated peptide ISEQSDAK(ac)LK (SEQ ID NO: 600)” value (ATP synthase subunit alpha mitochondrial [539], gene ATP5A1, inhibitor:DMSO) was 0.46 log 2, the “light to heavy ratio (L/H ratio) of acetylated peptide […](ac)ETIAK (SEQ ID NO: 307)” value (ATP synthase subunit b mitochondrial [233], ATP5F1, drug:DMSO) was 1.00 log 2 and the “light to heavy ratio (L/H ratio) of acetylated peptide LVPLK(ac)ETIK (SEQ ID NO: 507)” value (ATP synthase subunit beta mitochondrial [485], gene ATP5B, inhibitor:DMSO) was −0.64 log 2. The “light to heavy ratio (L/H ratio) of acetylated peptide […](ac)QLTVK (SEQ ID NO: 279)” value (ATP synthase subunit g mitochondrial [66], ATP5L, drug:DMSO) was 0.56 log 2, the “light to heavy ratio (L/H ratio) of acetylated peptide FEDPK(ac)FEVIEKPQA (SEQ ID NO: 325)” value (ATP synthase-coupling factor 6 mitochondrial [99], ATP5J, drug:DMSO) was 0.00 log 2 and the “light to heavy ratio (L/H ratio) of acetylated peptide SAQEAYK(ac)SYIR (SEQ ID NO: 502)” value (ATP-dependent RNA helicase DDX18 [584], gene DDX18, inhibitor:DMSO) was −0.74 log 2. For the same molecule, the “light to heavy ratio (L/H ratio) of acetylated peptide MQK(ac)[…] (SEQ ID NO: 526)” value (Actin aortic smooth muscle [317], gene ACTA2, inhibitor:DMSO) was −0.44 log 2, the “light to heavy ratio (L/H ratio) of acetylated peptide AFAK(ac)ELFLGK (SEQ ID NO: 627)” value (Acyl-CoA dehydrogenase family member 9 mitochondrial [41], gene ACAD9, inhibitor:DMSO) was 0.49 log 2 and the “light to heavy ratio (L/H ratio) of acetylated peptide YSAK(ac)DYFFK (SEQ ID NO: 319)” value (Alpha-soluble NSF attachment protein [203], NAPA, drug:DMSO) was 1.00 log 2. The “light to heavy ratio (L/H ratio), log 2 scale, acetylated peptide SELTGK(ac)FEK (SEQ ID NO: 778)” value (Annexin A5 [76], gene ANXA5, drug:DMSO) was 1.00, the “light to heavy ratio (L/H ratio) of acetylated peptide PAQGAK(ac)YR (SEQ ID NO: 305)” value (Annexin A6 [9], ANXA6, drug:DMSO) was 1.00 log 2 and the “light to heavy ratio (L/H ratio) of acetylated peptide TKYEK(ac)SLYSMIK (SEQ ID NO: 270)” value (Annexin A6 [299], ANXA6, drug:DMSO) was 0.46 log 2. For the same molecule, the “light to heavy ratio (L/H ratio) of acetylated peptide NDTSGEYK(ac)K (SEQ ID NO: 285)” value (Annexin A6 [314], ANXA6, drug:DMSO) was 0.61 log 2, the “light to heavy ratio (L/H ratio) of acetylated peptide AINEAYK(ac)EDYHK (SEQ ID NO: 282)” value (Annexin A6 [478], ANXA6, drug:DMSO) was 0.59 log 2 and the “light to heavy ratio (L/H ratio) of acetylated peptide NKPLFFADK(ac)LYK (SEQ ID NO: 298)” value (Annexin A6 [607], ANXA6, drug:DMSO) was 0.78 log 2.
